Results published in patent US12692247B2, “Phenyl- and pyridopyrazole derivatives as inhibitors of DDR1” (Redx Pharma Limited, priority 2021, dated 2026).

Columns and labels:
[1] = target: T1, Recombinant human DDR1 (Homo sapiens, UniProt Q08345); experiment: LanthaScreen Eu Kinase Binding Assay, DDR1; settings: recombinant human DDR1 (2.5 nM; aa440-876, GST tag), Kinase Tracer 178 5 nM, time-resolved fluorescence, at least two independent replicates; read-out: DDR1 pIC50 (converted)
T1 construct: Recombinant human DDR1 (2.5 nM; aa440-876 containing a GST tag)
Protocol: (§1) DDR1 and DDR2 Biochemical Assay Method
(§2) The capacity of compounds to bind to DDR1 and DDR2 was quantified using a LanthaScreen Eu Kinase Binding Assay. Recombinant human DDR1 (2.5 nM; aa440-876 containing a GST tag) and DDR2 (1.75 nM; aa427-855 containing a GST tag) were diluted in assay buffer (50 mM HEPES pH7.3, 10 mM MgCl2, 1 mM EGTA and 0.01% Tween) with various concentrations of compound in a 384-well plate and a volume of 5 uL. After a 30-minute incubation at room temperature, 2.5 uL of Eu-anti GST antibody (diluted to 1 nM in assay buffer) plus Kinase Tracer 178 (diluted in assay buffer to 5 nM for DDR1 and 10 nM for DDR2) were added to the plate. Following 60-minute incubation at room temperature, time-resolved fluorescence was measured on a BMG Labtech PHERAstar plate reader. DMSO (1%) and reference compound (1 μM) were used to generate the Max and Min assay signals, respectively. Data was analysed using a four-parameter logistic model to calculate IC50 values, with at least two independent replicates were performed for each compound.

[2] = target: T2, Recombinant human DDR2 (Homo sapiens, UniProt Q16832); experiment: LanthaScreen Eu Kinase Binding Assay, DDR2; settings: recombinant human DDR2 (1.75 nM; aa427-855, GST tag), Kinase Tracer 178 10 nM, time-resolved fluorescence, at least two independent replicates; read-out: DDR2 pIC50 (converted)
T2 construct: DDR2 (1.75 nM; aa427-855 containing a GST tag)
T2 sequence (Q16832 427-855): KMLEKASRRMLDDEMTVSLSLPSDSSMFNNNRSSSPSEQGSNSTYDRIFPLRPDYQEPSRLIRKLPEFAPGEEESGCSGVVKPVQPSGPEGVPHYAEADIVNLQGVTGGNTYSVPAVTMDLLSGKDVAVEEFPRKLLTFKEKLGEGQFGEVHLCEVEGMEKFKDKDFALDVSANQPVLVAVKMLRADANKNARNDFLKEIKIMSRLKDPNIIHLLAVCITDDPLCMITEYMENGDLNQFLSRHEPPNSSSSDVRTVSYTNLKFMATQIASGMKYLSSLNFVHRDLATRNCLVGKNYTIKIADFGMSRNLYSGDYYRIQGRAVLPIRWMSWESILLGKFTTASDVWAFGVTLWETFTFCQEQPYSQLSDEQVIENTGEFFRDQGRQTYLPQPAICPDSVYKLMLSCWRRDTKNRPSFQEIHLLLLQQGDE
Protocol: as §1, §2

T1 sequence (Q08345 440-876 isoform Q08345-2): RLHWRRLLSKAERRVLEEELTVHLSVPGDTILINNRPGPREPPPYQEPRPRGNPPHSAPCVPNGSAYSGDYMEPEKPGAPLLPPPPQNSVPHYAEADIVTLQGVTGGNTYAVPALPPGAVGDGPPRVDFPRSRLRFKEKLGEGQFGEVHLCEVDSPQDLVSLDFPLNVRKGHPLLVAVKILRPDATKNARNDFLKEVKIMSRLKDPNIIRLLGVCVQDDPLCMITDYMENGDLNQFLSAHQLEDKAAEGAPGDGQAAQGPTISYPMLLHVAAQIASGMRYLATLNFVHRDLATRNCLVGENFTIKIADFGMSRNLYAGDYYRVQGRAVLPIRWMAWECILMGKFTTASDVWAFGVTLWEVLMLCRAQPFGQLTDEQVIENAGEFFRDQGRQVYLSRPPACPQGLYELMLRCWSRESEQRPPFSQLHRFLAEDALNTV

Structure (SMILES)	IC50 [1]	IC50 [2]
COC(=O)c1cncc(NC(=O)Cn2ccc3cccc(Nc4ccc5c(cnn5C)c4)c3c2=O)c1 [Example 63]	10 to 100 nM	10 to 100 nM
Cn1ncc2cc(Nc3cccc4ccn(CC(=O)Nc5cc(C(F)(F)F)no5)c(=O)c34)ccc21 [Example 48, 2-[8-[(1-methylindazol-5-yl)amino]-1-oxo-2-isoquinolyl]-N-[3-(trifluoromethyl)isoxazol-5-yl]acetamide]	10 to 100 nM	10 to 100 nM
CN(c1ccc2c(cnn2C)c1)c1cccc2ccn(CC(=O)NCC(F)(F)F)c(=O)c12 [Example 88, 2-[8-[methyl-(1-methylindazol-5-yl)amino]-1-oxo-2-isoquinolyl]-N-(2,2,2-trifluoroethyl) acetamide]	10 to 100 nM	100 to 1000 nM
CN1CCC(NC(=O)Cn2ccc3cccc(Nc4ccc5c(cnn5C)c4)c3c2=O)CC1 [Example 18, 2-[8-[(1-methylindazol-5-y)amino]-1-oxo-2-isoquinolyl]-N-(1-methyl-4-piperidyl)acetamide]	≥ 1000 nM	≥ 1000 nM
CN(CC(F)(F)F)C(=O)Cn1ccc2cccc(Nc3ccc4c(cnn4C)c3)c2c1=O [Example 23, N-methyl-2-[8-[(1-methylindazol-5-yl)amino]-1-oxo-2-isoquinolyl]-N-(2,2,2-trifluoroethyl)acetamide]	10 to 100 nM	100 to 1000 nM
Cn1nccc1NC(=O)Cn1ccc2cccc(Nc3ccc4c(cnn4C)c3)c2c1=O [Example 36, 2-[8-[(1-methylindazol-5-yl)amino]-1-oxo-2-isoquinolyl]-N-(2-methylpyrazol-3-yl)acetamide]	10 to 100 nM	100 to 1000 nM
CC(C(=O)NCC(F)(F)F)n1ccc2cccc(Nc3ccc4c(cnn4C)c3)c2c1=O (stereo not shown) [Example 51, 2-[8-[(1-methylindazol-5-yl)amino]-1-oxo-2-isoquinolyl]-N-(2,2,2-trifluoroethyl) propanamide]	≥ 1000 nM	≥ 1000 nM
Cn1ncc2cc(Nc3cccc4ccn(CC(=O)Nc5ccc(C(F)(F)F)cc5)c(=O)c34)ccc21 [Example 30, 2-[8-[(1-methylindazol-5-yl)amino]-1-oxo-2-isoquinolyl]-N-[4-(trifluoromethyl)phenyl]acetamide]	< 10 nM	≥ 1000 nM
Cn1ncc2cc(Nc3cccc4ccn(CC(=O)NC5CCOCC5)c(=O)c34)ccc21 [Example 15, 2-[8-[(1-methylindazol-5-yl)amino]-1-oxo-2-isoquinolyl]-N-tetrahydropyran-4-yl-acetamide]	100 to 1000 nM	≥ 1000 nM
CN(C)CCc1ccc(NC(=O)Cn2ccc3cccc(Nc4ccc5c(cnn5C)c4)c3c2=O)cc1C(F)(F)F [Example 133, N-[4-[(dimethylamino)ethyl]-3-(trifluoromethyl)phenyl]-2-[8-[(1-methylindazol-5-yl)amino]-1-oxo-2-isoquinolyl]acetamide]	10 to 100 nM	100 to 1000 nM
Cc1cn(-c2cc(NC(=O)Cn3ccc4cccc(Nc5ccc6c(cnn6C)c5)c4c3=O)cc(C(F)(F)F)c2)cn1 [Example 79, N-[3-(4-methylimidazol-1-yl)-5-(trifluoromethyl)phenyl]-2-[8-[(1-methylindazol-5-yl)amino]-1-oxo-2-isoquinolyl]acetamide]	10 to 100 nM	100 to 1000 nM
CC(C)CNC(=O)Cn1ccc2cccc(Nc3ccc4c(cnn4C)c3)c2c1=O [Example 9, N-isobutyl-2-[8-[(1-methylindazol-5-yl)amino]-1-oxo-2-isoquinolyl]acetamide]	10 to 100 nM	100 to 1000 nM
CN(C)Cc1ccc(NC(=O)Cn2ccc3cccc(Nc4ccc5c(cnn5C)c4)c3c2=O)cc1C(F)(F)F [Example 112, N-[4-[(dimethylamino)methyl]-3-(trifluoromethyl)phenyl]-2-[8-[(1-methylindazol-5-yl)amino]-1-oxo-2-isoquinolyl]acetamide]	< 10 nM	10 to 100 nM
Cn1ncc2cc(Nc3cccc4ccn(CC(=O)N5CCCC(C(F)(F)F)C5)c(=O)c34)ccc21 (stereo not shown) [Example 121]	10 to 100 nM	100 to 1000 nM
Cn1cc(NC(=O)Cn2ccc3cccc(Nc4ccc5c(cnn5C)c4)c3c2=O)cn1 [Example 41, 2-[8-[(1-methylindazol-5-yl)amino]-1-oxo-2-isoquinolyl]-N-(1-methylpyrazol-4-yl)acetamide]	100 to 1000 nM	≥ 1000 nM
COc1cncc(NC(=O)Cn2ccc3cccc(Nc4ccc5c(cnn5C)c4)c3c2=O)c1 [Example 56, N-(5-methoxy-3-pyridyl)-2-[8-[(1-methylindazol-5-yl)amino]-1-oxo-2-isoquinolyl]acetamide]	10 to 100 nM	10 to 100 nM
C[C@H](NC(=O)Cn1ccc2cccc(N(C)c3ccc4c(cnn4C)c3)c2c1=O)C(F)(F)F [Example 143, 2-[8-[methyl-(1-methylindazol-5-yl)amino]-1-oxo-2-isoquinolyl]-N-[(1S)-2,2,2-trifluoro-1-methyl-ethyl]acetamide]	10 to 100 nM	100 to 1000 nM
Cn1ncc2cc(Nc3cccc4ccn(CC(=O)NC5(C(F)(F)F)CCCC5)c(=O)c34)ccc21 [Example 42, 2-[8-[(1-methylindazol-5-yl)amino]-1-oxo-2-isoquinolyl]-N-[1-(trifluoromethyl)cyclopentyl]acetamide]	10 to 100 nM	100 to 1000 nM
CCNC(=O)Cn1ccc2cccc(Nc3ccc4c(cnn4C)c3)c2c1=O [Example 14, N-ethyl-2-[8-[(1-methylindazol-5-yl)amino]-1-oxo-2-isoquinolyl]acetamide]	100 to 1000 nM	≥ 1000 nM
COC(=O)C1CCN(C(=O)Cn2ccc3cccc(Nc4ccc5c(cnn5C)c4)c3c2=O)C1 (stereo not shown) [Example 73, methyl 1-[2-[8-[(1-methylindazol-5-yl)amino]-1-oxo2-isoquinolyl]acetyl]pyrrolidine-3-carboxylate]	100 to 1000 nM	≥ 1000 nM
Cn1ncc2cc(Nc3cccc4ccn(CC(=O)Nc5cccc(C(C)(C)N)c5)c(=O)c34)ccc21 [Example 103]	< 10 nM	10 to 100 nM
Cn1ncc2cc(Nc3cccc4ccn(CC(=O)Nc5ccncc5)c(=O)c34)ccc21 [Example 26, 2-[8-[(1-methylindazol-5-yl)amino]-1-oxo-2-isoquinolyl]-N-(4-pyridyl)acetamide]	≥ 1000 nM	≥ 1000 nM
Cn1ncc2cc(Nc3cccc4ccn(CC(=O)N5CCC[C@H]5C(C)(C)O)c(=O)c34)ccc21 [Example 60, 2-[2-[(2S)-2-(1-hydroxy-1-methyl-ethyl)pyrrolidin-1-yl]-2-oxo-ethyl]-8-[(1-methylindazol-5-yl)amino]isoquinolin-1-one]	100 to 1000 nM	≥ 1000 nM
Cn1ncc2cc(Nc3cccc4ccn(CC(=O)N5CCC[C@H]5CF)c(=O)c34)ccc21 [Example 136, 2-[2-[(2S)-2-(fluoromethyl)pyrrolidin-1-yl]-2-oxo-ethyl]-8-[(1-methylindazol-5-yl)amino]isoquinolin-1-one]	< 10 nM	10 to 100 nM
CC(C)[C@H](NC(=O)Cn1ccc2cccc(Nc3ccc4c(cnn4C)c3)c2c1=O)C(F)(F)F [Example 46, 2-[8-[(1-methylindazol-5-yl)amino]-1-oxo-2-isoquinolyl]-N-[(S)-2-methyl-1-(trifluoromethyl)propyl]acetamide]	10 to 100 nM	10 to 100 nM
Cn1ncc2cc(Nc3cc(F)cc4ccn(CC(=O)NCC(F)(F)F)c(=O)c34)ccc21 [Example 47, 2-[6-fluoro-8-[(1-methylindazol-5-yl)amino]-1-oxo-2-isoquinolyl]-N-(2,2,2-trifluoroethyl) acetamide]	100 to 1000 nM	≥ 1000 nM
CC(=O)C1CCCCN1C(=O)Cn1ccc2cccc(Nc3ccc4c(cnn4C)c3)c2c1=O (stereo not shown) [Example 141, 2-[2-(2-acetyl-1-piperidyl)-2-oxoethyl]-8-[(1-methylindazol-5-yl)amino]isoquinolin-1-one]	100 to 1000 nM	≥ 1000 nM
Cn1ncc2cc(Nc3cccc4ccn(CC(=O)Nc5cncc(C(F)(F)F)c5)c(=O)c34)ccc21 [Example 31, 2-[8-[(1-methylindazol-5-yl)amino]-1-oxo-2-isoquinolyl]-N-[5-(trifluromethyl)-3-pyridyl]acetamide]	< 10 nM	< 10 nM
Cn1ncc2cc(Nc3cccc4ccn(CC(=O)NC(c5ccccc5)C(F)(F)F)c(=O)c34)ccc21 (stereo not shown) [Example 35, 2-[8-[(1-methylindazol-5-yl)amino]-1-oxo-2-isoquinolyl]-N-(2,2,2-trifluoro-1-phenyl-ethyl)acetamide]	10 to 100 nM	100 to 1000 nM
